# Measured values as given in US7727993B2, “Administering adenosine A2A receptor antagonist to reduce or suppress side effects of parkinson's disease therapy” (Kyowa Hakko Kirin Co., Ltd., priority 2002, dated 2010).
# “Also recorded” adds a separate entry of the source.
# Tests used:
# [1] = system: MPTP cynomologus monkeys; test: Chronic L-DOPA alone or with KW-6002 in drug-naive MPTP parkinsonian monkeys (Example 4); assay type: in vivo; conditions: L-DOPA alone group versus L-DOPA plus KW-6002 group; week 3 and 4; FIG. 8
# Procedure: ANIMALS: 8 (eight) female drug-naïve cynomologus monkeys weighing between 3 and 5 kg were used. They were rendered parkinsonian by subcutaneous infusion of MPTP (0.5 mg daily) until development of an obvious parkinsonian Syndrome (akinesia, hunched posture and tremor associated with a disability score on our scale of 6 or more). The cumulative dose necessary was variable: from 3.5 to 23.5 mg. The animals were allowed to recover during at least one month except an animal who had to be treated earlier because of marked akinesia. They were scored at least once daily. The disability score remained stable throughout that period. […] The drug was administered orally with a special capsule handler. The animals in the KW-6002 group also received this compound (90 mg/kg) by the oral route. The animals were observed daily (from Monday to Friday) in their cages through a one-way screen and video recordings were made of significant events (abnormal behavior—dyskinesias). They were scored on disability scale and eventually dyskinesia rating scale, before and during the effect. The treatment with L-DOPA was continued for one month.
# [2] = system: chronically L-DOPA-treated 6-hydroxydopamine lesion rats; test: Abnormal involuntary movements (AIMs) scoring, L-DOPA induced dyskinesia (Example 3); assay type: in vivo, rat
# Procedure: 6-hydroxydopamine (8 μg) was injected into the left medial forebrain bundle in a rat. One week after the lesion, the rats were then tested for contralateral turning by injecting apomorphine (0.1 mg/kg s.c.). Only those animals showing robust contralateral turning were used in subsequent experiments.
# During the chronic treatment of L-DOPA, recording of severity scale of AIMs were carried out. In addition, an amplitude-based scale for each limb and axial AIMs was scored during a microdialysis study. Amplitude scores of limb or axial AIMs (each ranging from 0 to 4) was rated based on both the magnitude of paw/limb translocation and of the visible involvement of distal versus proximal muscle groups or on the lateral deviation (or torsion) of an animal's neck and trunk from the longitudinal axis of its body, respectively.
# [3] = system: 6-hydroxydopamine lesion rats; test: In vivo microdialysis of GABA and glutamate in substantia nigra pars reticulata (Example 3); set-up: species or system rat
# Procedure: GABA and glutamate concentrations in an output nucleus of basal ganglia, substantia nigra pars reticulata (SNr), are measured in the 6-hydroxydopamine lesion rats and the chronically L-DOPA-treated rats after 6-hydroxydopamine lesion. Effect of adenosine A2A receptor selective antagonists on GABA and glutamate levels in SNr and dyskinesias was examined. 6-hydroxydopamine (8 μg) was injected into the left medial forebrain bundle in a rat. One week after the lesion, the rats were then tested for contralateral turning by injecting apomorphine (0.1 mg/kg s.c.). Only those animals showing robust contralateral turning were used in subsequent experiments. […] Rats were placed in each test chamber and the microdialysis probe inserted into SNr was attached to a fluid swivel (TCS2-23, Eicom) that allowed free movement (also sustained rotational behavior). Probes were continuously perfused with a modified Ringer's solution (1.2 mmol/L CaCl2, 2.7 mmol/L KCl, 148 mmol/L NaCl, and 0.85 mmol/L MgCl2; pH 7, artificial cerebrospinal fluid solution) at a rate of 2 μL/min via a microinjection pump (CMA/100, Carnegie […] AB). After stabilization of basal level of release for 3-4 h, 4 samples (60 μL each) during 2 h of perfusion were collected using a fraction collector (CMA/140, Carnegie […]). […] The samples were immediately assayed or frozen and stored in a deep freeze (-80° C.) before assays. GABA and glutamate were analyzed using reverse phase high-performance liquid chromatograph with fluorescence detection after pre-column derivatization of the amino acids with orthophthaldialdehyde reagent. Lindroth and Mopper (1979).
# [4] = system: MPTP-treated common marmosets; test: L-DOPA induced dyskinesia in MPTP-treated marmosets primed with L-DOPA (Example 5); assay type: in vivo; conditions: L-DOPA 2.5 mg/kg oral
# Procedure: METHODS: MPTP (Sigma-Aldrich, St. Louis, Mo., USA) was dissolved in physiological saline and administered at a dose of 2.0 mg/kg s.c. daily for 5 days. Then, MPTP 2 mg/kg were further administered approximately 3 weeks.
# The dyskinesia of the animals was scored using the rating scale described in Table 4. […] The score was calculated as the L-DOPA pre value. On the next day the animals received vehicle for the vehicle control value. […] Animals were assessed for dyskinesia on days 1, 3, 5, 7, 14, 21 and 28 according to the rating scale.
# Abnormal movement such as, orofacial movements, myoclonus and complex stereotypic behaviors (e.g., elaborate checking, obsessive grooming), are exclude from dyskinesia rating.
# Remarks According to Dyskinesia. Dystonia (arm, leg and trunk): abnormal sustained posture (ex. leg elevation). Stereotypic reaching (arm) Athetosis (arm and leg): writhing twisting movements. Chorea (arm and leg): abnormal rapid (dance like) movements of limbs. Akathisia: motor restlessness. Dyskinesia score is become higher according to severity of dyskinesia. The maximal score is four points.
# [5] = L-DOPA treatment 2 weeks after 6-hydroxydopamine lesion
# [6] = L-DOPA treatment 3 weeks after 6-hydroxydopamine lesion
smiles,measurement,setting,value
N[C@@H](Cc1ccc(O)c(O)c1)C(=O)O [L-DOPA],level of dyskinesia,[1],reached a higher level
same,average maximum AIM scores,"[2]; 2 to 3 weeks chronic L-DOPA, from 10 min to 3 hrs after L-DOPA administration",9
same,AIMs (sum of the amplitude score of limb and axial AIMs),"[2]; chronically L-DOPA-treated rats, FIG. 4",marked AIMs
same,nigral GABA level,"[3]; 6-hydroxydopamine lesion rats, change from pre-value, KW-6002 1 mg/kg p.o., FIG. 2A, 3A",facilitation; also recorded: significant increases
same,nigral glutamate level,"[3]; 6-hydroxydopamine lesion rats, change from pre-value, KW-6002 1 mg/kg p.o., FIG. 2B, 3B",facilitation; also recorded: significant increases
same,basal level of nigral GABA,[3]; L-DOPA treatment 1 week (20 mg/kg orally twice a day) after 6-hydroxydopamine lesion,19.3 ± 2.3 nmol/L
same,basal level of nigral glutamate,[3]; L-DOPA treatment 1 week after 6-hydroxydopamine lesion,147.5 ± 38.1 nmol/L
same,basal level of nigral GABA,[3]; [5],20.9 ± 6.8 nmol/L
same,basal level of nigral glutamate,[3]; [5],112.0 ± 47.1 nmol/L
same,basal level of nigral GABA,[3]; [6],23.6 ± 4.5 nmol/L
same,basal level of nigral glutamate,[3]; [6],425.4 ± 99.6 nmol/L
same,nigral GABA levels after administration,"[3]; chronically L-DOPA-treated 6-hydroxydopamine lesion rats, FIG. 5A",without effect
same,nigral glutamate levels after administration,"[3]; chronically L-DOPA-treated 6-hydroxydopamine lesion rats, FIG. 5B",increased
same,basal nigral glutamate concentration during chronic L-DOPA (in words),[3]; constant until 2 weeks,drastically increase in 3 weeks
same,basal nigral GABA levels during chronic L-DOPA (in words),[3]; throughout 1 to 3 weeks,maintained unchanged
same,dyskinesias induced by L-DOPA,[4],mild dyskinesias
